From patent US5061794A, “Cephalosporin derivatives, and antibacterial agents” (priority 1986, dated 1991)
Where a name gives a salt, the structure may show the parent alone. Read-outs that look alike come from different tables or passages of the source.

What was measured:
E. coli CSH(RE45) = assay: microbe, parasite or virus in culture; assay type: cell-based; settings: Escherichia coli, 16 h, read-out: Minimum Inhibitory Concentration (MIC), *E. coli CSH(RE45), lactamase-producing strain; 10^6 CFU/ml
Method in brief: (§1)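 First, strains were cultured overnight in Mueller Hinton broth. Next, one loopful went onto drug-containing Mueller Hinton agar (10^6 CFU/ml). Finally, after 37° C. incubation for 16 hours, MIC was determined in μg/ml.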

E. coli CSH2 (RK1) = assay: microbe, parasite or virus in culture; assay type: cell-based; settings: Escherichia coli, 16 h, read-out: Minimum Inhibitory Concentration (MIC), *E. coli CSH2 (RK1), lactamase-producing strain; 10^6 CFU/ml
Method in brief: as §1

A. calcoaceticus No. 4 = assay: in vitro antibacterial activity, agar plate dilution method (MIC); assay type: cell-based, Acinetobacter calcoaceticus; settings: Acinetobacter calcoaceticus, NO.4, 16 h, 10^6 CFU/ml
Method in brief: as §1

Ps. aeruginosa AKR17 = assay: as above; assay type: cell-based, Pseudomonas aeruginosa; settings: Pseudomonas aeruginosa, 10^6 CFU/ml
Method in brief: as §1

Ps. aeruginosa AK 109 = assay: as above; assay type: cell-based, Pseudomonas aeruginosa; settings: Pseudomonas aeruginosa, AK109, 16 h, 10^6 CFU/ml
Method in brief: as §1

Ps. aeruginosa IF03445 = assay: as above; assay type: cell-based, Pseudomonas aeruginosa; settings: Pseudomonas aeruginosa, 10^6 CFU/ml
Method in brief: as §1

E. cloacae Nek 39 = assay: as above; assay type: cell-based; settings: Enterobacter cloacae, NEK39, 16 h, 10^6 CFU/ml
Method in brief: as §1

S. marcescens No. 16-2 = assay: as above; assay type: cell-based; settings: Serratia marcescens, NO.162, 16 h, read-out: Minimum Inhibitory Concentration (MIC)
Method in brief: as §1

S. marcescens IAM 1184 = assay: as above; assay type: cell-based; settings: Serratia marcescens, IAM1184, 16 h, S. marcescens IAM 1184; 10^6 CFU/ml; read-out: Minimum Inhibitory Concentration (MIC)
Method in brief: as §1

P. vulgaris HX-19 = assay: as above; assay type: cell-based; settings: Proteus vulgaris, HX19, 16 h, P. vulgaris HX-19; 10^6 CFU/ml; read-out: Minimum Inhibitory Concentration (MIC)
Method in brief: as §1

P. vulgaris No. 33 = assay: as above; assay type: cell-based; settings: Proteus vulgaris, 10^6 CFU/ml
Method in brief: as §1

E. cloacae 963 = assay: as above; assay type: cell-based; settings: 10^6 CFU/ml
Method in brief: as §1

E. coli GN5482 = assay: as above; assay type: cell-based; settings: Escherichia coli, read-out: Minimum Inhibitory Concentration (MIC)
Method in brief: as §1

S. aureus 209P NIHJ-JC1 = assay: as above; assay type: cell-based; settings: Staphylococcus aureus, 16 h, 10^6 CFU/ml, 37° C., 16 hours
Method in brief: as §1

K. pneumoniae No. 42 = assay: as above; assay type: cell-based; settings: Klebsiella pneumoniae, 10^6 CFU/ml
Method in brief: as §1

K. oxytoca GN10650 = assay: as above; assay type: cell-based; settings: Klebsiella oxytoca, 10^6 CFU/ml
Method in brief: as §1

E. coli NIHJ JC2 = assay: as above; assay type: cell-based; settings: Escherichia coli
Method in brief: as §1

K. pneumoniae PCI-602 = assay: as above; assay type: cell-based; settings: Klebsiella pneumoniae, PCI602, 16 h, 10^6 CFU/ml
Method in brief: as §1

M. morganii GN5407 = assay: as above; assay type: cell-based; settings: Morganella morganii, 10^6 CFU/ml
Method in brief: as §1

Ps. cepacia 23 = assay: as above; assay type: cell-based, Pseudomonas cepacia; settings: Burkholderia cepacia, 16 h; Ps. cepacia 23; 10^6 CFU/ml; read-out: Minimum Inhibitory Concentration (MIC)
Method in brief: as §1

Question: Which results are given for CO/N=C(\C(=O)N[C@@H]1C(=O)N2C(C(=O)O)=C(CSc3nnc(-c4ccccc4)s3)CS[C@H]12)c1csc(N)n1 [compound 5, 7β-[2-(2-aminothiazol-4-yl)-2-methoxyiminoacetamido]-3-(5-phenyl-1,3,4-thiadiazol-2-yl) thiomethyl-3-cephem-4-carboxylic acid trifluoroacetate, reference compound]?
Answer: MIC (E. coli CSH(RE45)): 0.2 µg/mL; MIC (E. coli CSH2 (RK1)): 0.2 µg/mL; MIC (A. calcoaceticus No. 4; A. calcoaceticus No. 4, read-out: Minimum Inhibitory Concentration (MIC)): 3.12 µg/mL; MIC (Ps. aeruginosa AKR17; 16 h, Ps. aeruginosa AKR17, read-out: Minimum Inhibitory Concentration (MIC)): > 100 µg/mL; MIC (Ps. aeruginosa AK 109; Ps. aeruginosa AK 109, read-out: Minimum Inhibitory Concentration (MIC)): 50 µg/mL; MIC (Ps. aeruginosa IF03445; 16 h, Ps. aeruginosa IF03445, read-out: Minimum Inhibitory Concentration (MIC)): 50 µg/mL; MIC (E. cloacae Nek 39; *E. cloacae Nek 39, lactamase-producing strain, read-out: Minimum Inhibitory Concentration (MIC)): 3.12 µg/mL; MIC (S. marcescens No. 16-2; *S. marcescens No. 16-2, lactamase-producing strain, 10^6 CFU/ml): 3.12 µg/mL; MIC (S. marcescens IAM 1184): 0.78 µg/mL; MIC (P. vulgaris HX-19): 0.0125 µg/mL; MIC (P. vulgaris No. 33; 16 h, *P. vulgaris No. 33, lactamase-producing strain, read-out: Minimum Inhibitory Concentration (MIC)): 0.39 µg/mL; MIC (E. cloacae 963; Enterobacter cloacae, 16 h, E. cloacae 963, read-out: Minimum Inhibitory Concentration (MIC)): 0.78 µg/mL; MIC (E. coli GN5482; 16 h, *E. coli GN5482, lactamase-producing strain, 10^6 CFU/ml): 0.39 µg/mL; MIC (S. aureus 209P NIHJ-JC1; S. aureus 209P NIHJ-JC1, read-out: Minimum Inhibitory Concentration (MIC)): 0.39 µg/mL; MIC (K. pneumoniae No. 42; 16 h, *K. pneumoniae No. 42, lactamase-producing strain, read-out: Minimum Inhibitory Concentration (MIC)): 0.78 µg/mL; MIC (K. oxytoca GN10650; 16 h, *K. oxytoca GN10650, lactamase-producing strain, read-out: Minimum Inhibitory Concentration (MIC)): 6.25 µg/mL; MIC (E. coli NIHJ JC2; NIHJJC2, E. coli NIHJ JC2, 10^6 CFU/ml, 37° C., 16 hours, read-out: Minimum Inhibitory Concentration (MIC)): 0.39 µg/mL; MIC (K. pneumoniae PCI-602; K. pneumoniae PCI-602, read-out: Minimum Inhibitory Concentration (MIC)): 0.0125 µg/mL; MIC (M. morganii GN5407; 16 h, *M. morganii GN5407, lactamase-producing strain, read-out: Minimum Inhibitory Concentration (MIC)): 0.78 µg/mL; MIC (Ps. cepacia 23): 3.12 µg/mL

Question: Which results are given for Nc1nc(C(=NOC2(C(=O)O)CC2)C(=O)NC2C(=O)N3C(C(=O)O)=C(CSc4nc(-c5ccc(O)c(O)c5)cs4)CSC23)cs1 (stereo not drawn) [Ex. 45, disodium 7β-[2-(2-aminothiazol-4-yl)-2-(1-carboxvlate-1-cyclopropoxyimino)acetamido]-3-[4-(3,4-dihvdroxvphenyl)thiazol-2-yl]thiomethyl-3-cephem-4-carboxylate]?
Answer: MIC (E. coli CSH(RE45)): 0.05 µg/mL; MIC (E. coli CSH2 (RK1)): 0.025 µg/mL; MIC (A. calcoaceticus No. 4; read-out: Minimum Inhibitory Concentration (MIC), A. calcoaceticus No. 4): 0.1 µg/mL; MIC (Ps. aeruginosa AKR17; AKR17, 16 h, read-out: Minimum Inhibitory Concentration (MIC), Ps. aeruginosa AKR17): 6.25 µg/mL; MIC (Ps. aeruginosa AK 109; read-out: Minimum Inhibitory Concentration (MIC), Ps. aeruginosa AK 109): 0.78 µg/mL; MIC (Ps. aeruginosa IF03445; IF03445, 16 h, read-out: Minimum Inhibitory Concentration (MIC), Ps. aeruginosa IF03445): 0.78 µg/mL; MIC (E. cloacae Nek 39; read-out: Minimum Inhibitory Concentration (MIC), *E. cloacae Nek 39, lactamase-producing strain): 0.05 µg/mL; MIC (S. marcescens No. 16-2): 0.39 µg/mL; MIC (S. marcescens IAM 1184): 0.05 µg/mL; MIC (P. vulgaris HX-19): < 0.006 µg/mL; MIC (P. vulgaris No. 33; NO.33, 16 h, read-out: Minimum Inhibitory Concentration (MIC), *P. vulgaris No. 33, lactamase-producing strain): 0.025 µg/mL; MIC (E. cloacae 963; Enterobacter cloacae, 963, 16 h, read-out: Minimum Inhibitory Concentration (MIC), E. cloacae 963): 0.05 µg/mL; MIC (E. coli GN5482; GN5482, 16 h): 0.39 µg/mL; MIC (S. aureus 209P NIHJ-JC1; read-out: Minimum Inhibitory Concentration (MIC), S. aureus 209P NIHJ-JC1): 6.25 µg/mL; MIC (K. pneumoniae No. 42; NO.42, 16 h, read-out: Minimum Inhibitory Concentration (MIC), *K. pneumoniae No. 42, lactamase-producing strain): 0.1 µg/mL; MIC (K. oxytoca GN10650; GN10650, 16 h, read-out: Minimum Inhibitory Concentration (MIC), *K. oxytoca GN10650, lactamase-producing strain): 0.1 µg/mL; MIC (E. coli NIHJ JC2; NIHJJC2, 16 h, read-out: Minimum Inhibitory Concentration (MIC), E. coli NIHJ JC2, 10^6 CFU/ml, 37° C.): 0.2 µg/mL; MIC (K. pneumoniae PCI-602; read-out: Minimum Inhibitory Concentration (MIC), K. pneumoniae PCI-602): < 0.006 µg/mL; MIC (M. morganii GN5407; GN5407, 16 h, read-out: Minimum Inhibitory Concentration (MIC), *M. morganii GN5407, lactamase-producing strain): 0.05 µg/mL; MIC (Ps. cepacia 23): < 0.006 µg/mL
